Results from ChEMBL document CHEMBL1125091, “Antiulcer agents. 4-substituted 2-guanidinothiazoles: reversible, competitive, and selective inhibitors of gastric H+,K(+)-ATPase” (J Med Chem, 1990).

The compounds below were run on Potassium-transporting ATPase (Canis familiaris) (assay: Percent inhibition of gastric proton-pump enzyme H+/K+ ATPase was determined at 50 uM). Details: Canis lupus familiaris, Stomach.

Compound	inhibition [%]
N=C(NCc1ccccc1)Nc1nc(-c2ccc(Cl)cc2)cs1	38
N#Cc1ccc2[nH]cc(-c3csc(NC(=N)NCc4ccccc4)n3)c2c1	50
N=C(NCc1ccccc1)Nc1nc(-c2cc3cc(F)ccc3[nH]2)cs1	49
N=C(N)Nc1nc(-c2ccccc2)co1	0
COc1ccc(-c2csc(N=C(N)N)n2)cc1OC	41
Cc1ccc(-c2csc(N=C(N)N)n2)cc1	61
N=C(NCc1ccccc1)Nc1nc(-c2cccc(Cl)c2)cs1	80
COc1ccc(-c2csc(NC(=N)NCc3ccccc3)n2)cc1	24
COc1ccc(-c2csc(NC(=N)NCc3ccccc3)n2)cc1OC	25
Cn1cc(-c2csc(N=C(N)N)n2)cc1C=O	44
N=C(NCc1ccccc1)Nc1nc(-c2ccc(-c3ccccc3)cc2)cs1	5
N=C(N)Nc1cc(Cl)nc(-c2ccccc2)n1	89
Cc1c(-c2csc(NC(=N)NCc3ccccc3)n2)ccn1S(=O)(=O)c1ccccc1	54
N=C(N)Nc1nc(-c2ccc(-c3ccccc3)cc2)cs1	25
N/C(=N\Cc1ccccc1)Nc1nc(-c2ccc(O)cc2)cs1	49
N/C(=N\Cc1ccccc1)Nc1nc(-c2cccc(O)c2)cs1	8
N=C(NCc1ccccc1)Nc1nc(-c2ccc(F)cc2)cs1	35
N=C(NCc1ccccc1)Nc1nc(-c2ccccc2)cs1	-1
Cc1sc(NC(=N)NCc2ccccc2)nc1-c1ccn(S(=O)(=O)c2ccccc2)c1C	35
N=C(N)Nc1nc(-c2ccccc2)cs1	52
CN(C)Cc1ccccc1-c1csc(N=C(N)N)n1	27
Cc1cc(-c2csc(NC(=N)NCc3ccccc3)n2)cn1S(=O)(=O)c1ccccc1	69
Cc1ccc(-c2csc(NC(=N)NCc3ccccc3)n2)cc1	16
N=C(N)NCCc1c[nH]c2ccccc12	15
Cc1[nH]c(-c2csc(N=C(N)N)n2)cc1C(=O)N(C)C	33
N=C(N)Nc1nc(-c2ccccc2O)cs1	26
Cc1ccc(-c2csc(N=C(N)N)n2)n1C	20
Cc1sc(NC(=N)NCc2ccccc2)nc1-c1c[nH]c2ccccc12	34
N=C(N)Nc1ccc(-c2ccccc2)cc1	16

Second part, the compound after the results:

inhibition [%]	Compound
17	Cc1cc(-c2csc(N)n2)c[nH]1
34	Cc1cc(-c2csc(NC(=N)N3CCCCC3)n2)c[nH]1
103	Cc1cccc2[nH]cc(-c3csc(NC(=N)NCc4ccccc4)n3)c12
54	CCCCCCN(C)C(=N)Nc1nc(-c2c[nH]c(C)c2)cs1
55	N=C(N)Nc1nc(-c2c[nH]c(CN3CCCCC3)c2)cs1
44	N=C(N)Nc1nc(-c2c[nH]c(C=O)c2)cs1
53	Cc1cccc(-c2csc(NC(=N)NCc3ccccc3)n2)c1
52	CN(C)c1cccc(-c2csc(NC(=N)N)n2)c1
83	Cc1ccc(-c2csc(NC(=N)NCc3ccccc3)n2)[nH]1
80	N#Cc1ccc2[nH]cc(-c3csc(NC(=N)N)n3)c2c1
68	CCCCCC/N=C(\NC)Nc1nc(-c2c[nH]c(C)c2)cs1
48	N=C(N)Nc1nc(-c2ccc(Cl)cc2)cs1
25	Cc1cc(-c2csc(NC3=NCCN3)n2)c[nH]1
19	Cc1cc(-c2csc(NC3=NCCCN3Cc3ccccc3)n2)c[nH]1
45	N=C(N)Nc1nc(-c2cccc(N)c2)cs1
5	Cc1nc(-c2c[nH]c(C=O)c2)cs1
68	N=C(N)Nc1nc(-c2cc[nH]c2)cs1
0	Cc1cc(-c2csc(C)n2)c[nH]1
13	Cc1cc(-c2csc(NC3=NCCN3C)n2)c[nH]1
9	Nc1nc(-c2c[nH]c(C=O)c2)cs1
25	CCCCC/N=C(\N)Nc1nc(-c2cccc(OC)c2)cs1
